From ChEMBL document CHEMBL4177681, “Protective effect of casuarinin against glutamate-induced apoptosis in HT22 cells through inhibition of oxidative stress-mediated MAPK phosphorylation” (Bioorg Med Chem Lett, 2017)
Calls of active or inactive are those of the source. The rule behind the calls is not given here.

Experiments:
HT-22 [1] = test: Neuroprotective activity against glutamate-induced cell death in mouse HT22 cells assessed as reduction in apoptotic cells at 50 uM after 10 to 12 hrs by Annexin V-alexa 488/propidium iodide staining based flow cytometry; type: functional
HT-22 [2] = test: Neuroprotective activity against glutamate-induced apoptosis in mouse HT22 cells assessed as apoptotic cells at 50 uM after 10 to 12 hrs by Annexin V-alexa 488/propidium iodide staining based flow cytometry (reference value: 57%); type: functional
HT-22 [3] = test: Neuroprotective activity against glutamate-induced cell death in mouse HT22 cells assessed as increase in cell viability […] after 24 hrs by MTT assay; type: functional, cell-based

`CC(=O)N[C@@H](CS)C(=O)O` [ACETYLCYSTEINE] was tested, and the Activity (HT-22 [1]) was “Active”, the Activity (HT-22 [2]) was 17% and the Activity (HT-22 [3]) was “Active”.
